Test results published in ChEMBL document CHEMBL6127148, “Discovery of l-Lysine Dioxalate (LH1513) as a Novel Inhibitor of Calcium Oxalate Crystallization for Hyperoxaluria” (ACS Med Chem Lett, 2024).
Calls of active or inactive are those of the source. The rule behind the calls is not given here.

Key:
Calcium oxalate [1] = experiment: Inhibition of calcium oxalate crystallization in supersaturated solution of CaOx containing of 250 uM of CaCl2 and 250 uM of Na2C2O4 incubated for 72 hrs at pH 6.8 HEPES buffer by fluorescence-based assay
Calcium oxalate [2] = experiment: Inhibition of calcium oxalate crystallization in COM (010) face assessed as growth on the (121-) steps at EC50 concentration incubated for 20 min by atomic force microscopic analysis
Calcium oxalate [3] = experiment: Inhibition of calcium oxalate crystallization in supersaturated solution of CaOx containing of 1 mM of CaCl2 and 250 uM of Na2C2O4 incubated for 72 hrs at pH 6.8 HEPES buffer by spectrophotometric method
Calcium oxalate [4] = experiment: Inhibition of calcium oxalate crystallization in COM (100) face assessed as twinned with monoclinic morphology at EC50 concentration by scanning electron microscopic analysis
[5] = Oral bioavailability in Agxt-knockout C57BL/6 mouse assessed as LH1513 level in plasma at 150 micromol/kg administered as triester prodrug and measured after 4 hrs; type: ADME, organism-based; settings: in vivo, at 150 µmol/kg
[6] = Drug metabolism in Agxt-knockout C57BL/6 mouse assessed as LH1513 concentration in urine at 150 micromol/kg, po administered as triester prodrug and measured after 8 hrs; type: ADME, organism-based; settings: in vivo, dose 150 µmol/kg, read-out: Ct
Mus musculus = experiment: Anti-hyperoxaluria Agxt-knockout C57BL/6 mouse model of hyperoxaluria assessed as decrease in CaOx crystals in urine at 150 micromol/kg, po administered as triester prodrug for 6 weeks by light microscopic analysis; type: functional, organism-based; settings: dose 150.0 µmol/kg
[7] = Drug excretion in Agxt-knockout C57BL/6 mouse urine at 150 micromol/kg, po measured after 8 hrs; type: ADME, organism-based; settings: in vivo, dose 150 µmol/kg
Calcium oxalate [8] = experiment: Inhibition of calcium oxalate crystallization in COM (100) face assessed as platy morphology at EC50 concentration by scanning electron microscopic analysis
Calcium oxalate [9] = experiment: Inhibition of calcium oxalate crystallization in COM (100) face assessed as crystals flattened at the apexes at EC50 concentration by scanning electron microscopic analysis

Structure (SMILES): NCCNC(=O)C(=O)O
- EC50 (Calcium oxalate [1]): 112 µM

Structure (SMILES): O=C(O)C(=O)NCCNC(=O)C(=O)O
- EC50 (Calcium oxalate [1]): 37.9 µM

Structure (SMILES): O=C([O-])C(=O)NCCCC[C@H](NC(=O)C(=O)[O-])C(=O)[O-].[Na+].[Na+].[Na+]
- inhibition (Calcium oxalate [2]): Active
- EC50 (Calcium oxalate [1]): 21.7 µM
- EC50 (Calcium oxalate [3]): 63.8 µM
- inhibition (Calcium oxalate [4]): Active
- F [5]: 3%
- concentration [6]: ~30 µM
- Activity (Mus musculus): Active
- Drug excretion [7]: Active

Structure (SMILES): O=C([O-])CC(O)(CC(=O)[O-])C(=O)[O-].[Na+].[Na+].[Na+] [SODIUM CITRATE]
- EC50 (Calcium oxalate [1]): 2500 µM
- EC50 (Calcium oxalate [3]): 665 µM
- inhibition (Calcium oxalate [8]): Active
- inhibition (Calcium oxalate [9]): Active

Structure (SMILES): CC(=O)C(=O)O [PYRUVATE SODIUM]
- EC50 (Calcium oxalate [1]): 98.3 µM
- EC50 (Calcium oxalate [3]): 386 µM
